One data set has as its system mammary tumors. Conditions: NMU administered at 55 days of age; cited from earlier work.
Data set [1] relates to NMU-induced tumorigenesis in mammary glands. As to the kind of experiment: Prophylaxis of NMU-induced mammary tumorigenesis by intraductal injection. In kind it is in vivo, Sprague Dawley rats. Conditions: rats given NMU 50 mg/kg i.v. after treatment, monitored 8 months. The protocol:
The mammary glands (6 on each side) of six virgin 50 day old Sprague Dawley rats were injected with AdHS-tk on the left side and trypan blue on the right side or left untreated. One rat remained completely untreated with the virus or GCV and served as a positive control for NMU-induced tumorigenesis. On the day of surgery, rats were given an intramuscular injection of 5 μg estradiol valerate and were anesthetized with an isofluorane/O2 mixture. The nipples were cannulated with a 33 gauge needle. Twenty μl of AdHS-tk diluted in trypan blue carrier (1 mM MgCl2, 20 μg/ml polybrene in 10% glycerol, 0.4% trypan blue in saline) at a concentration of 5×10^7 particles/μl were injected into the duct. Carrier control mammary glands received 20 μl of trypan blue carrier alone. An animal was considered treated when at least three glands were successfully injected with trypan blue and another three glands were successfully injected with AdHS-tk. The remaining glands were left untreated. Twelve hrs later, the rats were injected with 125 mg/kg body weight GCV twice daily for three days. […] Five to seven days after GCV treatment, the rats were given an intravenous injection of NMU dissolved in 0.05% acetic acid (Ash Stevens, CO; 50 mg NMU/kg body weight) and were subsequently monitored for general health and the appearance of tumors at weekly intervals for 8 months.

In data set [2] the test system is ductal carcinoma in situ, MNU-induced tumor formation. As to the kind of experiment: MNU-induced tumor formation rat model, teat infusion of anticancer agents. In kind it is in vivo, Sprague Dawley rats. Conditions: for incidence of tumor mass formation: within 6 months of MNU-injection; for rats with no visible masses or mammary lesions at necropsy: necropsy Day 180±2. The source says: The objective of this study was to evaluate the efficacy of five test articles (four marketed anticancer agents), administered directly into the mammary gland ducts via teat infusion, for therapy and prevention of ductal carcinoma in situ in an N-Nitroso-N-Methylurea (MNU)-induced tumor formation rat model. Based upon previous animal studies, candidates were selected for more rigorous evaluation at B Braun Biological Test Center (BTC) in Irvine, Calif. This facility was chosen to continue the preclinical work, started by Dr. Sukumar at JHU in order to support studies with a larger number of animals, in compliance with Good Laboratory Practices.
The agents were tested in 120 female Sprague Dawley rats (n=20 per treatment). On Day 1, each rat was injected intraperitoneally with MNU to induce tumor formation. […] Rats were weighed prior to MNU injection, prior to intra-ductal infusion, and once weekly throughout the study.
Rats were observed twice daily for mortality/morbidity and 1-3 times weekly for general appearance, stool appearance, signs of toxicity, and palpable mass formation until death or euthanasia. […] At necropsy, organs and tissues were grossly observed, and the entire bilateral mammary gland system, visible masses, and abnormal tissues were collected and retained in formalin.

Data set [3] in a line: Dose escalation study of intraductal cytotoxic drugs in women prior to mastectomy, safety. In kind it is in vivo. To be noted: 300 mg dose, five subjects per group. The method, then: (§1) The study was performed in Cancer Hospital, Chinese Academy of Medical Sciences, Beijing, China where the standard of care includes a long preoperative hospital stay prior to mastectomy. Two drugs, pegylated liposomal doxorubicin (PLD) and carboplatin (C) were administered at 3 dose levels (PLD: 10, 20, 50 mg and carboplatin 60, 120, 300 mg) with the highest dose approximating the clinical intravenous dose. There were five subjects in each group with 15 subjects treated with each drug once. After informed consent, under local anesthesia subjects underwent cannulation of 5-8 ducts with intraductal instillation of the drug. Venous blood samples were obtained for pharmacokinetic analysis. The total dosage was divided by the number of cannulated ducts to yield a dose per duct. The breast was removed surgically as planned 2-5 days post treatment and the treated ducts were marked to enable identification on pathological evaluation. Intraductal administration was generally well-tolerated with mild, transient breast discomfort upon administration associated with the rate of infusion. Clinically significant laboratory adverse events were limited to decreases in hemoglobin following mastectomy, consistent with blood loss. […] In the carboplatin arm, three women at the 300 mg dose experienced mild nausea and vomiting.

Data set [4] is described as follows: Pharmacokinetic analysis of venous blood after intraductal administration. In kind it is in vivo, women. Conditions: intraductal carboplatin. The protocol:
as §1

The structures appear in SMILES notation.

Results on four molecules are retold here after patent US20130046171A1, “DEVICE AND METHOD FOR ACCESSING AND TREATING DUCTS OF MAMMARY GLANDS” (priority 2008, published 2013).

As for `CN(N=O)C(N)=O` [NMU, N-Nitroso-N-Methylurea], in the data set with mammary tumors, the “female rats that develop mammary tumors” value is 90-100%.
Consider `Nc1nc(O)c2ncn(COC(CO)CO)c2n1` [No injection; Ganciclovir, Ganciclovir], for which, in data set [1], the “% of Glands with Tumor” value is listed as 25.0% and the “No. of Tumors” value was found to be 5.
For `CC(=O)O[C@H]1C(=O)[C@@]2(C)[C@H]([C@H](OC(=O)c3ccccc3)[C@]3(O)C[C@H](OC(=O)[C@H](O)[C@@H](NC(=O)c4ccccc4)c4ccccc4)C(C)=C1C3(C)C)[C@]1(OC(C)=O)CO[C@@H]1C[C@@H]2O` [Taxol®, paclitaxel], in data set [2] (0.15 mg/teat), the “incidence of palpable masses during the course of the study” value is “highest and most rapid”; the “incidence of tumor mass formation” value is “highest incidence of mass formation”. The “number of rats with masses at final observations prior to death or euthanasia” value in data set [2] (0.15 mg/teat intraductal on Day 15) is 20 of 20. In addition, the “rats with visible masses at necropsy” value in data set [2] (0.15 mg/teat, necropsied 4 months post-MNU injection, 20 rats) turned out to be 20 rats.
Consider `N.N.O=C([O-])C1(C(=O)[O-])CCC1.[Pt+2]` [carboplatin], for which the “rats with no visible masses or mammary lesions at necropsy” value in data set [2] (0.42 mg/teat) is given as 5 of 20. Moreover, in data set [2] (0.75 mg/teat), the “incidence of palpable masses during the course of the study” value was “lowest and least rapid”; the “rats with no visible masses or mammary lesions at necropsy” value is listed as 7 of 19; the “incidence of tumor mass formation” value is recorded as “lowest incidence of tumor mass formation”. Also, the “number of rats with masses at final observations prior to death or euthanasia” value in data set [2] (0.75 mg/teat intraductal on Day 15) is 11 of 20. Besides, the “mild nausea and vomiting” value in data set [3] was “three”. The “plasma ultrafiltrate AUC (area under the curve)” value in data set [4] is reported as “consistent with the Calvert Formula using estimated GFR”. In data set [4] (systemic circulation), the “peak time (tmax)” value is listed as about 30 min.
